Assay results reported in patent publication US20240165089A1, “METHOD FOR TREATING MYOPIA WITH VINPOCETINE” (EYE HOSPITAL, WENZHOU MEDICAL UNIVERSITY, priority 2021, published 2024).
In brackets after ≈: the same amount, converted by molar mass. Several values for one entry are separate records, joined by “and”; a condition that tells them apart may be missing. Identical values can stand only once. Like-named read-outs stand apart in the source and are kept apart here.

Legend:
[1] = system: lens induction myopia (LIM, −4D lens) guinea pig model; assay: lens induction myopia (LIM) guinea pig model, injection around the eyeball; type: in vivo
Excerpt: The form deprivation and lens-induced guinea pig myopia model is a classic and recognized myopia animal model in the field. The model can be used to evaluate the efficacy and safety of drugs for treating myopia. The construction method of the model is well known to those skilled in the art. The animal modeling and administration route in this application refer to the scientific literature previously published by this research group (Sen Zhang, Invest Ophthalmol Vis Sci. 2019 Jul. 1; 60(8):3074-3083.; Miaozhen Pan, Exp Eye Res. 2021 January; 202:108332.), specifically, this application uses the following exemplary construction method of the form deprivation and lens-induced guinea pig myopia model:
(§1) three-week-old tricolor guinea pigs (both male and female, simulating humans aged 3-26 years old) were used and raised in the experimental animal room of Wenzhou Medical University in a 12-hour light (400-500 lux)/12-hour dark environment with free access to water and food. The myopia model adopted monocular form deprivation (FD) and lens induction (LI) modeling methods. […] In the lens induction group, a −4D lens was fixed in front of the right eye of the animal, and the left eye obtained normal vision. For the above animals, the lenses were cleaned twice a day to prevent the lenses from blurring. The animals in the experimental group were administrated at 9:00-9:30 am every day. […] The administration process for each animal was controlled in about 10 seconds. Administration began on the day of modeling, and was continuous for 2 weeks for the form deprivation group and was continuous for 1 week for the lens induction group. This experiment has been reviewed by the Experimental Animal Ethics Committee of Wenzhou Medical University.
The inventors prepared a 5 μM (i.e., 1.75 μg/mL) vinpocetine stock solution and stored at −80° C. The solvent was physiological saline. Before administration experiment, the stock solution was diluted with physiological saline to 1 μM, 0.1 μM, and 0.01 μM, respectively. During the formulation process of vinpocetine eye drops, the solubility can be increased by using conventional physical methods such as heating and stirring, or acids can also be used to adjust the PH value to increase solubility, and finally, the PH value can be adjusted to 7.31.
2. Lens induction plus drug injection group: • wearing a −4D lens on one eye and injecting vinpocetine (0.01 μM: 0.1 mL/day) into the eye wearing the −4D lens for 1 weeks, sample size=12; • wearing a −4D lens on one eye and injecting vinpocetine (0.1 μM: 0.1 mL/day) into the eye wearing the −4D lens for 1 weeks, sample size=12; • wearing a −4D lens on one eye and injecting vinpocetine (1.00 μM 0.1 mL/day) into the eye wearing the −4D lens for 1 weeks, sample size=13; • 3.
All animals in the same model efficacy experiment were measured within the same time period, and the first measurement was at 3 weeks of age, that is, before drug administration. Refractions and eyeball parameters were measured for the animals in the above FDM group before the experiment, after 1 week of administration in the experiment and after 2 weeks of administration in the experiment and for the animals in the LIM group before the experiment, after 3 days of administration in the experiment and after 7 days of administration in the experiment, respectively. The refractions were measured using an eccentric infrared photoretinoscope (EIR) built in our laboratory. Each eye was measured three times and the average was taken as the final result. The axial parameters of the guinea pig's eyeballs were measured using the A-ultrasound probe in the CinescanA/B ultrasonic diagnostic instrument (QuantelMedical, Aviso, France). The ultrasonic frequency was 11 MHz. The ultrasonic propagation speeds of different refractive media of the eyeball were set as: 1557.5 m/s for the anterior chamber, 1723.3 m/s for the lens, and 1540 m/s for the vitreous body.

[2] = system: choroid of FDM guinea pigs; assay: choroidal thickness and blood flow by OCTA, FDM group; type: in vivo, guinea pig
Protocol: The choroidal blood flow parameters and choroidal thickness were measured for the animals in the above FDM group after 1 week of continuous administration and at the end of the 2 week-administration experiment and for the animals in the LIM group at the end of the 7 day-administration experiment. Choroidal blood flow parameters and thickness were measured using a modified commercial OCTA (Spectralis HRA+OCT, OCTA, Heidelberg, Germany) which is more suitable for animal eyeballs. Before the measurement, the guinea pigs were fully anesthetized (a mixture of ketamine hydrochloride 60 mg/kg and xylazine hydrochloride 9 mg/kg, intraperitoneally injected), and then the guinea pig OCTA images were obtained, and the measurement results were quantified through a self-written program (MatLab R2017a, MathWorks). Real-time quantitative detection of choroidal blood flow and thickness in guinea pigs was achieved (Sen Zhang, Invest Ophthalmol Vis Sci. 2019 Jul. 1; 60(8):3074-3083).
Vinpocetine is known to improve blood circulation. The inventors used the method of example 1 to detect changes of indicator signals of choroidal thickness ChT and choroidal blood flow ChBP of FDM (1 week and 2 weeks of administration) and LIM (1 week of administration) at different time points during the administration cycle.

[3] = system: form deprivation myopia model of guinea pigs; assay: FDM guinea pig model, eye drops (non-invasive administration); type: in vivo; settings: for refraction difference between the eyes: FDM
Protocol: The purpose of this experiment was to evaluate the effect of vinpocetine on myopia through non-invasive administration. All tested drugs were formulated into eye drops. […] No other active substances or excipients were added to the above eye drops.

[4] = system: guinea pigs; assay: safety observation during local administration to young guinea pigs; type: in vivo, guinea pig
Excerpt: as §1

[5] = cited from earlier work
[6] = system: rabbits; settings: rabbit, in vivo, cited from earlier work
[7] = vinpocetine 5 μM eye drops, 2 weeks
[8] = vinpocetine 5 μM eye drops, 2 weeks (rounded and actual value)

CCOC(=O)C1=C[C@]2(CC)CCCN3CCc4c(n1c1ccccc41)[C@@H]32 [vinpocetine]
effect of myopia treatment compared with the negative control group ([1]; high-, medium- and low-concentration vinpocetine (1, 0.1, 0.01 μM), 3 days): showed the effect of myopia treatment | refraction difference between the experimental eye and the contralateral eye ([1]; vinpocetine 1 μM 0.1 mL/day peribulbar injection, 3 days): −2.00±0.82 D | axial length difference between the experimental eye and the contralateral eye ([1]; vinpocetine 1 μM, 3 days): 0.04±0.02 mm | inhibition rate for the axial length ([1]; vinpocetine 1 μM, 3 days): 55.5% | inhibition rate for the vitreous chamber depth ([1]; vinpocetine 1 μM, 3 days): 58.8% | refraction inhibition rate ([1]; vinpocetine 1 μM, 3 days): 38.5% | vitreous chamber depth difference between the experimental eye and the contralateral eye ([1]; vinpocetine 1 μM, 3 days): 0.03±0.03 mm | axial length difference between the experimental eye and the contralateral eye ([1]; vinpocetine 1 μM, 7 days): 0.05±0.02 mm | inhibition rate for the axial length ([1]; vinpocetine 1 μM, 7 days): 53.8% | inhibition rate for the vitreous chamber depth ([1]; vinpocetine 1 μM, 7 days): 49.8% | refraction difference between the experimental eye and the contralateral eye ([1]; vinpocetine 1 μM, 7 days): −2.61±1.17 D | refraction inhibition rate ([1]; vinpocetine 1 μM, 7 days): 36.3% | vitreous chamber depth difference between the experimental eye and the contralateral eye ([1]; vinpocetine 1 μM, 7 days): 0.05±0.02 mm | choroidal thickness ChT ([2]; 1 and 2 weeks, vs solvent injection group, not statistically significant): only slightly increased | choroidal blood perfusion ChBP ([2]; 1 and 2 weeks, vs solvent injection group, p=0.285): only slightly increased | effect on choroidal vasodilation compared with atropine ([2]; vinpocetine 0.1 μM, 2 weeks): not as good as atropine | improvement of choroidal blood flow among vinpocetine concentrations ([2]; vinpocetine 1 μM, 1 week): least effective at improving choroidal blood flow | refraction difference between the eyes ([3]; vinpocetine 1 μM eye drops 25 μL twice a day, 2 weeks): −4.81±1.72 D | refraction difference between the eyes ([3]; vinpocetine 5 μM eye drops 25 μL twice a day, 2 weeks): −3.80±1.16 D | refraction inhibition rate ([3]; vinpocetine 1 μM eye drops, 2 weeks): 26.7% | inhibition rate for the axial length [3, 7]: 41.4% | inhibition rate for the vitreous chamber depth [3, 7]: 38.6% | refraction inhibition rate [3, 7]: 42.1% | axial length difference between the eyes [3, 8]: 0.09±0.04 mm and 0.0925±0.0406 mm | vitreous chamber depth difference between the eyes [3, 8]: 0.09±0.04 mm and 0.0869±0.0448 mm | common clinical adverse reactions or toxic manifestations such as weight loss ([4]; guinea pig, in vivo): no individual was observed to have common clinical adverse reactions or toxic manifestations | allergic phenomenon ([4]; local administration of vinpocetine): no allergic phenomenon | changes in the pupil size of the test eyes ([4]; local administration of vinpocetine to young guinea pigs): No significant changes | ocular abnormalities ([4]; vinpocetine group, local administration): No ocular abnormalities | solubility in water [5]: almost insoluble in water | solubility in 0.5% methylcellulose ([5]; room temperature): 200 mg/mL (≈ 571 mM) | solubility in water ([5]; room temperature): 2.4 µg/mL (≈ 0.00685 mM) | toxicity findings ([6]; 75 mg/kg/day): without any obvious abnormalities | toxicity findings ([6]; 150 mg/kg): toxic effects of weight loss and food intake reduction
